Residues, ends and D or L forms follow the SMILES beside them. No end group written: not given here. *: point of attachment. For = O=C*
Key:
yDcn1^P = biological target: T1, yDcn1^P (Saccharomyces cerevisiae, UniProt Q12395); experiment: ITC binding of Ubc12 peptides to yDcn1^P; design: species or system S. cerevisiae; settings: for ΔH / ΔS: ITC, protein yDcn1^P; for ΔH: change in enthalpy; for ΔS: change in entropy
T1 construct: made in house; host or cells: E. coli
T1 sequence (Q12395 70-269): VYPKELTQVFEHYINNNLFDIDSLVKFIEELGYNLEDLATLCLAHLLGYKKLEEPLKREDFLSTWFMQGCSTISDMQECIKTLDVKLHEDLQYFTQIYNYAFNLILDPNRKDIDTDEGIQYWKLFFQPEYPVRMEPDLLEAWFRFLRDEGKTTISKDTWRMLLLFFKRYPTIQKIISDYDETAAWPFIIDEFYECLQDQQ
Method: (§1) Protein samples were buffer matched by desalting over a NAP-5 column (GE Healthcare) into 50 mM Hepes, 125 mM NaCl, 1 mM BME, pH 7.0 (ITC buffer). Peptides were dissolved by weight to a final concentration of 10 mM in ITC buffer and diluted further in ITC buffer as required for the experiments. […] The peptide ligands (4 mM) were constantly injected (1.5 μl). The interval time between each injection was 3 minutes and the duration of each injection was 3 seconds. For titrations involving hE1 and yE1, proteins were placed into the sample cell at a final concentration of 25 μM at 22° C. Peptide ligands (250 μM) were constantly injected (2.5 μl). The interval time between each injection was three minutes and the duration of each injection was 5 seconds. For hCul1^ctd-Rbx1:hDcn1^P binding, proteins were buffer matched by desalting over a NAP-5 column in 25 mM Tris, 0.1 M NaCl, 1 mM BME, pH 7.6. hCul1^ctd-Rbx1 was placed into the sample cell at a final concentration of 55 μM at 22° C. […]) was constantly injected (2.5 μl). The interval time between each injection was 3 minutes and the duration of each injection was 5 seconds.

[1] = biological target: T2, yE1 for yNedd8 (Ula1Uba3) (Saccharomyces cerevisiae, UniProt Q99344); experiment: ITC binding of Ubc12 peptides to yE1; design: species or system S. cerevisiae; settings: for ΔH / ΔS: ITC, protein yE1; for ΔH: change in enthalpy; for ΔS: change in entropy
T2 construct: made in house; host or cells: E. coli
T2 sequence (Q99344 1-299): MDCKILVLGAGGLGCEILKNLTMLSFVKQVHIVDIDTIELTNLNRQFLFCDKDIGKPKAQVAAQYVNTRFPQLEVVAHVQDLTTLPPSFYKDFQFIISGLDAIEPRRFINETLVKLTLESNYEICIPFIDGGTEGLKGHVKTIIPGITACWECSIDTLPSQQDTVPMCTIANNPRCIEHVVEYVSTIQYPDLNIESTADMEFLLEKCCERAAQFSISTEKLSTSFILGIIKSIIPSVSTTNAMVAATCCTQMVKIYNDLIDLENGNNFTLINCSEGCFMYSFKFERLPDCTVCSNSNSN
T2 sequence (Q12059 1-462 partner): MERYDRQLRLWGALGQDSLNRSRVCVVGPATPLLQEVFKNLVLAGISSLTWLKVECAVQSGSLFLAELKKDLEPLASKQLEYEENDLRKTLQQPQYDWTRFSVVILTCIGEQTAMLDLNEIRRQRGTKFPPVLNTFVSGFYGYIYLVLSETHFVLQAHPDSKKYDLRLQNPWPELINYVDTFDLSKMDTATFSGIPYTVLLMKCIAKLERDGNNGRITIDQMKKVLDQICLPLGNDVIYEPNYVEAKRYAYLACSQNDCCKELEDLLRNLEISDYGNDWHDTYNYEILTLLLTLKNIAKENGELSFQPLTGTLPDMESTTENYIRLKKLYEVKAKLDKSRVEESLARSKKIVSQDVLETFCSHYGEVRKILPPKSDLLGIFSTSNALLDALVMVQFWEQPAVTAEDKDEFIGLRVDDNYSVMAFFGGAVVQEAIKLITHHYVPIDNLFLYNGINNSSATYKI
Method: as §1

hDcn1^P = biological target: T3, hDcn1^P (Homo sapiens, UniProt Q96GG9); experiment: ITC binding of Ubc12/Ube2f peptides to hDcn1^P; settings: Example 3
T3 construct: hDcn1^P corresponds to residues 62 to the C-terminal residue 259 of hDcn1; GST (cleaved yes); made in house; host or cells: E. coli BL21(DE3)Gold
T3 sequence (Q96GG9 62-259): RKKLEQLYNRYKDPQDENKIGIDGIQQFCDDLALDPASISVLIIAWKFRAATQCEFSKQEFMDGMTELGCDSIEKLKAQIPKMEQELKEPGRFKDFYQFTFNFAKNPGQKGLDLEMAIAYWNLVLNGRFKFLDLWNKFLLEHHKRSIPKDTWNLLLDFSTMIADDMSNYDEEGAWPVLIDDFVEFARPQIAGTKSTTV
Method: (§2) Protein samples were buffer matched by desalting over a NAP-5 column (GE Healthcare) into 50 mM Hepes, 125 mM NaCl, 1 mM BME, pH 7.0 (ITC buffer). Peptides were dissolved by weight to a final concentration of 10 mM in ITC buffer and diluted further in ITC buffer as required for the experiments. Measurements were performed using a MicroCal ITC200. hDcn1^P or yDcn1^P were placed into the sample cell at a final concentration of 400 μM at 18° C. The peptide ligands (4 mM) were constantly injected (1.5 μl). The interval time between each injection was 3 minutes and the duration of each injection was 3 seconds. For titrations involving hE1 and yE1, proteins were placed into the sample cell at a final concentration of 25 μM at 22° C. Peptide ligands (250 μM) were constantly injected (2.5 μl). The interval time between each injection was three minutes and the duration of each injection was 5 seconds. For hCul1^ctd-Rbx1:hDcn1^P binding, proteins were buffer matched by desalting over a NAP-5 column in 25 mM Tris, 0.1 M NaCl, 1 mM BME, pH 7.6. hCul1^ctd-Rbx1 was placed into the sample cell at a final concentration of 55 μM at 22° C. hDcn1^P (550 μM) was constantly injected (2.5 μl). The interval time between each injection was 3 minutes and the duration of each injection was 5 seconds. Obtained spectra were evaluated using Origin (V 7.0) to determine heats of binding and Kd values.
(§3) The affinity of various peptides for hDcn1^P, hDcn2^P, hDcn3^P, hDcn4^P, and hDcn5^P was tested using isothermal titration calorimetry as described in Example 1 and is provided in Table 29.

hDcn2^P = biological target: T4, hDcn2^P (Homo sapiens, UniProt Q6PH85); experiment: ITC binding of peptides to hDcn2^P; settings: Example 3
T4 construct: human Dcn1 family members 1-5 (also called DCUND1-DCUND5)
T4 sequence (Q6PH85 62-259): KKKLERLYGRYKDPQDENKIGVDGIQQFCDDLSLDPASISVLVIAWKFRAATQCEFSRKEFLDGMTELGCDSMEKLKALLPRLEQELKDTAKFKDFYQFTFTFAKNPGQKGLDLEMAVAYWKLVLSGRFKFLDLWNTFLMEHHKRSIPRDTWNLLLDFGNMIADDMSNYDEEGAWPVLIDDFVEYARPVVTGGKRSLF
Method: as §2, §3

hDcn3^P = biological target: T5, hDcn3^P (Homo sapiens, UniProt Q8IWE4); experiment: ITC binding of peptides to hDcn3^P
T5 sequence (Q8IWE4 86-304): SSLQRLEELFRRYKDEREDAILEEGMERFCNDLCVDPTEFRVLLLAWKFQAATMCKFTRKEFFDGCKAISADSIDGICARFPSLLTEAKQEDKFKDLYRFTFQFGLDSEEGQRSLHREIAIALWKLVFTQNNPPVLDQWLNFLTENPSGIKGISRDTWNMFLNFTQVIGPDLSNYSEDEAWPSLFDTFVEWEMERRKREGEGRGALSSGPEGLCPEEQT
Method: as §2, §3

hDcn5^P = biological target: T6, hDcn5^P (Homo sapiens, UniProt Q9BTE7); experiment: ITC binding of peptides to hDcn5^P; settings: Table 29, peptides with amidated carboxy-terminus
T6 construct: human Dcn1 family members 1-5 (also called DCUND1-DCUND5)
T6 sequence (Q9BTE7 47-237): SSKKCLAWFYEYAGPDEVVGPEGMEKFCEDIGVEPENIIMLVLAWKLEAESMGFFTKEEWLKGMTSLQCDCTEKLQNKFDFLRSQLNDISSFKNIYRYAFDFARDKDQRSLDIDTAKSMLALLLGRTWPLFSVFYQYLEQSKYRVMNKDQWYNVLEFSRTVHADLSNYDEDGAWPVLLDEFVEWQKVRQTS
Method: as §2, with “values. […]” for “values.”

| Molecule | ΔH (yDcn1^P) | ΔS (yDcn1^P) [cal/mol/deg] | Kd [1] [nM] | ΔH [1] | ΔS [1] [cal/mol/deg] | further results |
| --- | --- | --- | --- | --- | --- | --- |
| H-MLKLRQLQKKKQKENENSSSIQPN-NH2 [yUbc12^1-24] | 3,777 cal/mol | 33.4 | 70 | −8,571 cal/mol | 2.65 | Kd (yDcn1^P): > 40000 nM |
| Ac-MLKLRQLQKKKQKENENSSSIQPN-NH2 [yUbc12Ac1-24] | 4,145 cal/mol | 43.6 | 16 | −11,260 cal/mol | −3.8 | affinity for Dcn1 (comparison in words) (hDcn1^P): greatest affinity; affinity for Dcn2 (comparison in words) (hDcn2^P): greatest affinity |
| hUbe2fAcl-25: N-terminally acetylated human Ube2f residues 1-25 (Ac-MLTLASKLKRDDGLKGSRTAATASD-NH2) | – | – | – | – | – | affinity for Dcn3 (comparison in words) (hDcn3^P; Example 3): greatest affinity; binding specificity for Dcn3 over other co-E3 proteins (hDcn3^P; Example 3): fairly specific |
| CC[C@H](C)[C@H](NC(=O)[C@H](CO)NC(=O)[C@H](CO)NC(=O)[C@H](CO)NC(=O)[C@H](CC(N)=O)NC(=O)[C@H](CCC(=O)O)NC(=O)[C@H](CC(N)=O)NC(=O)[C@H](CCC(=O)O)NC(=O)[C@H](CCCCN)NC(=O)[C@H](CCC(N)=O)NC(=O)[C@H](CCCCN)NC(=O)[C@H](CCCCN)NC(=O)[C@H](CCCCN)NC(=O)[C@H](CCC(N)=O)NC(=O)[C@H](CC(C)C)NC(=O)[C@H](CCC(N)=O)NC(=O)[C@H](CCCNC(=N)N)NC(=O)[C@H](CC(C)C)NC(=O)[C@H](CCCCN)NC(=O)[C@H](CC(C)C)NC(=O)[C@H](CCSC)NC=O)C(=O)N[C@@H](CCC(N)=O)C(=O)N1CCC[C@H]1C(=O)N[C@@H](CC(N)=O)C(N)=O [Formyl-yUbc12^1-24] (For-MLKLRQLQKKKQKENENSSSIQPN-NH2) | 2,824 cal/mol | 33.4 | – | – | – | – |
| MLTLASKLKRDDGLKGSRTAATASD-NH2 [hUbe2f^1−25] | – | – | – | – | – | Kd (hDcn3^P; Table 29, peptides with amidated carboxy-terminus): > 400000 nM |
| hUbc12Ac1-26: N-terminally acetylated peptide of residues 1-26 of human Ubc12 (Ac-MIKLFSLKQQKKEEESAGGTKGSSKK-NH2) | – | – | – | – | – | affinity for Dcn1 (comparison in words) (hDcn1^P): greatest affinity; affinity for Dcn2 (comparison in words) (hDcn2^P): greatest affinity |
| Ac-LKLRQLQKKKQKENENSSSIQPN-NH2 [Acetyl-yUbc12^2-24] | 3,761 cal/mol | 33.4 | 1580 | −9,625 cal/mol | −7.21 | Kd (yDcn1^P): > 37000 nM |
| CC[C@H](C)[C@H](NC(=O)[C@H](CCSC)NC(C)=O)C(=O)N[C@@H](CCCCN)C(=O)N[C@@H](CC(C)C)C(=O)N[C@@H](Cc1ccccc1)C(=O)N[C@@H](CO)C(=O)N[C@@H](CC(C)C)C(=O)N[C@@H](CCCCN)C(=O)N[C@@H](CCC(N)=O)C(=O)N[C@@H](CCC(N)=O)C(=O)N[C@@H](CCCCN)C(=O)N[C@@H](CCCCN)C(N)=O [hUbc12^Ac1−12] | – | – | – | – | – | Kd (hDcn5^P): > 30000 nM |
